Assay results from PubChem BioAssay AID2060602 (Molecular Pharmacology Branch, DTP, NCI, 2025).
Each block holds one compound with its values, some of them ahead of it.

System: 648629-189-R-J1-PDC complex spheroids viability
Test: Anticancer human tumor 648629-189-R-J1-PDC patient-derived bladder carcinoma cell line growth inhibition [CLK]
Settings: for IC50: curve of first compound; for viability, T/C: stronger effect = lower value
Outline: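 Multi-cell-type spheroids combined patient-derived tumor cells with HUVEC endothelial cells and human mesenchymal stem cells. Paired agents were dosed in half-log steps down from about clinical Cmax, or from 10 microM where Cmax was unknown.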

[1] = second compound 0.0316 µM, first compound 0.0316 µM
[2] = second compound 0.0316 µM, first compound 0.1 µM
[3] = second compound 0.0316 µM, first compound 0.316 µM
[4] = second compound 0.0316 µM, first compound 1 µM
[5] = second compound 0.0316 µM, first compound 3.16 µM
[6] = second compound 0.0316 µM, first compound 10 µM
[7] = second compound 0.1 µM, first compound 0.0316 µM
[8] = second compound 0.1 µM, first compound 0.1 µM
[9] = second compound 0.1 µM, first compound 0.316 µM
[10] = second compound 0.1 µM, first compound 1 µM
[11] = second compound 0.1 µM, first compound 3.16 µM
[12] = second compound 0.1 µM, first compound 10 µM
[13] = second compound 0.316 µM, first compound 0.0316 µM
[14] = second compound 0.316 µM, first compound 0.1 µM
[15] = second compound 0.316 µM, first compound 0.316 µM
[16] = second compound 0.316 µM, first compound 1 µM
[17] = second compound 0.316 µM, first compound 3.16 µM
[18] = second compound 0.316 µM, first compound 10 µM
[19] = second compound 1 µM, first compound 0.0316 µM
[20] = second compound 1 µM, first compound 0.1 µM
[21] = second compound 1 µM, first compound 0.316 µM
[22] = second compound 1 µM, first compound 1 µM
[23] = second compound 1 µM, first compound 3.16 µM
[24] = second compound 1 µM, first compound 10 µM
[25] = second compound 3.16 µM, first compound 0.0316 µM
[26] = second compound 3.16 µM, first compound 0.1 µM
[27] = second compound 3.16 µM, first compound 0.316 µM
[28] = second compound 3.16 µM, first compound 1 µM
[29] = second compound 3.16 µM, first compound 3.16 µM
[30] = second compound 3.16 µM, first compound 10 µM
[31] = second compound 10 µM, first compound 0.0316 µM
[32] = second compound 10 µM, first compound 0.1 µM
[33] = second compound 10 µM, first compound 0.316 µM
[34] = second compound 10 µM, first compound 1 µM
[35] = second compound 10 µM, first compound 3.16 µM
[36] = second compound 10 µM, first compound 10 µM
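For viability, T/C in this document: drug exposure lasted seven days before viability readout; 100% = DMSO vehicle control wells.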

IC50 (second compound 0.0316 µM): 9760 nM
IC50 (second compound 0.1 µM): 7740 nM
IC50 (second compound 0.316 µM): < 31.6 nM
IC50 (second compound 1 µM): < 31.6 nM
IC50 (second compound 3.16 µM): < 31.6 nM
IC50 (second compound 10 µM): < 31.6 nM
SMILES: COc1ccc([C@@H](O)c2cc(-c3ncnc4cc(N5CCOCC5)ccc34)c(F)cc2Cl)nn1 + CNC(=O)c1ccc(Nc2nc(OC3CCCC3)c3c(-c4ccc5nc(C)oc5c4)c[nH]c3n2)c(OC)c1
viability, T/C [1]: 105%
viability, T/C [2]: 93%
viability, T/C [3]: 97%
viability, T/C [4]: 85.3%
viability, T/C [5]: 67.4%
viability, T/C [6]: 49.7%
viability, T/C [7]: 90.6%
viability, T/C [8]: 89.3%
viability, T/C [9]: 83.7%
viability, T/C [10]: 82%
viability, T/C [11]: 60.5%
viability, T/C [12]: 47%
viability, T/C [13]: 30.8%
viability, T/C [14]: 27%
viability, T/C [15]: 26.8%
viability, T/C [16]: 24.6%
viability, T/C [17]: 22.4%
viability, T/C [18]: 24.2%
viability, T/C [19]: 20.2%
viability, T/C [20]: 22.2%
viability, T/C [21]: 20.5%
viability, T/C [22]: 17.5%
viability, T/C [23]: 22.4%
viability, T/C [24]: 16%
viability, T/C [25]: 21.3%
viability, T/C [26]: 20.5%
viability, T/C [27]: 20.4%
viability, T/C [28]: 15%
viability, T/C [29]: 19.2%
viability, T/C [30]: 18.1%
viability, T/C [31]: 19.6%
viability, T/C [32]: 17.1%
viability, T/C [33]: 21.7%
viability, T/C [34]: 20.1%
viability, T/C [35]: 19.1%
viability, T/C [36]: 15.7%

IC50 (second compound 0.0316 µM): < 31.6 nM
IC50 (second compound 0.1 µM): < 31.6 nM
IC50 (second compound 0.316 µM): < 31.6 nM
IC50 (second compound 1 µM): < 31.6 nM
IC50 (second compound 3.16 µM): < 31.6 nM
IC50 (second compound 10 µM): < 31.6 nM
SMILES: COc1cccc2c1C(=O)c1c(O)c3c(c(O)c1C2=O)CC(O)(C(=O)CO)CC3OC1CC(N)C(O)C(C)O1 (centres undefined) + CNC(=O)c1ccc(Nc2nc(OC3CCCC3)c3c(-c4ccc5nc(C)oc5c4)c[nH]c3n2)c(OC)c1
viability, T/C [1]: 26.4%
viability, T/C [2]: 13.9%
viability, T/C [3]: 5.64%
viability, T/C [4]: 0.45%
viability, T/C [5]: 0.38%
viability, T/C [6]: 0.54%
viability, T/C [7]: 19.4%
viability, T/C [8]: 11.8%
viability, T/C [9]: 5.03%
viability, T/C [10]: 0.29%
viability, T/C [11]: 1.37%
viability, T/C [12]: 2.64%
viability, T/C [13]: 16.4%
viability, T/C [14]: 13.1%
viability, T/C [15]: 6.53%
viability, T/C [16]: 0.2%
viability, T/C [17]: 0.98%
viability, T/C [18]: 0.49%
viability, T/C [19]: 12.5%
viability, T/C [20]: 10.1%
viability, T/C [21]: 4.27%
viability, T/C [22]: 0.27%
viability, T/C [23]: 0.56%
viability, T/C [24]: 3.36%
viability, T/C [25]: 18.9%
viability, T/C [26]: 13.1%
viability, T/C [27]: 4.42%
viability, T/C [28]: 0.23%
viability, T/C [29]: 0.79%
viability, T/C [30]: 1.4%
viability, T/C [31]: 21.1%
viability, T/C [32]: 13.5%
viability, T/C [33]: 8.07%
viability, T/C [34]: 0.28%
viability, T/C [35]: 2.28%
viability, T/C [36]: 3.42%
